For data set [1] the following is noted: cited from earlier work.
Data set [2] has as its system Pseudomonas aeruginosa (luminescent strain). Nature of the data set: Substitution analysis of apidaecin 1b by peptide array, bioluminescence assay. Format: cell-based. The settings on record: FIG. 1, luminescence, P. aeruginosa. On the procedure:
To optimize the antimicrobial activity of apidaecin 1b, a substitution analysis was carried out using this peptide (according to SEQ ID No. 2). The substitution library was synthesized by means of SPOT synthesis, and was analyzed for antibacterial activity against Pseudomonas aeruginosa by means of bioluminescence assay.
The SPOT synthesis of the peptide libraries was carried out on Whatman 50 filter paper (Sigma-Aldrich, Germany) measuring 19×29 cm by means of the Fmoc method and a SPOT synthesizer (Intavis AG, Germany) (according to Reineke U et al. 2001). The luminescence screening method that was used is based on the publication by Hilpert and Hancock (Hilpert, 2007). The peptides synthesized on the membrane were split off and the peptide spots were punched out of the peptide membrane using a hole punch, and were transferred to a 96-well microtiter plate (Corning, USA), after which 200 μL distilled water per well was added. […]
In the second step, the actual screening was performed. […] The incubation suspension (4 vol. % Log C in 100 mM Tris-HCl buffer (pH 7.3) with 40 mM sterile filtered glucose) was then distributed to 96-well plates (VWR, Germany) that are suitable for luminescence, and incubated with a concentration series of the peptide library for 4 hours at 37° C. After incubation, luminescence measurement was performed using a luminometer (Thermo, Finland).

Entries after “also recorded” stand apart in the source; their conditions may differ. Peptide text beside a SMILES is read from it.

On to `CC[C@H](C)[C@H](NC(=O)[C@@H]1CCCN1C(=O)[C@H](CCCNC(=N)N)NC(=O)[C@@H]1CCCN1C(=O)[C@H](Cc1cnc[nH]1)NC(=O)[C@H](CO)NC(=O)[C@@H](NC(=O)[C@@H]1CCCN1C(=O)[C@H](CCCNC(=N)N)NC(=O)[C@@H]1CCCN1C(=O)[C@H](CO)NC(=O)[C@H](Cc1ccc(O)cc1)NC(=O)[C@@H]1CCCN1C(=O)[C@H](CCCNC(=N)N)NC(=O)[C@@H]1CCCN1C(=O)[C@H](CCCCN)NC(=O)CN)[C@@H](C)O)C(=O)N[C@@H](CCCNC(=N)N)C(=O)N[C@H](C(=O)O)C(C)C` [drosocin] (H-GKPRPYSPRPTSHPRPIRV-OH), for which, in data set [1], the “breakdown in mammalian serum (25%)” value is reported as “broken down within one hour”.

Turning to gu-ONNRPVYIPRPRPPHPRL-NH2, the fragment found entry in “25% mouse serum” was “gu-O1-R17”.

On to gu-OWNRPVYIPRPRRPHPRL-NH2, for which, in “25% mouse serum”, the fragment found entry is “gu-O1-R17; also recorded: gu-O1-R12”.

gu-OWNRPVYIPRPRRPHPRL-OH: the fragment found result in “100% mouse serum” is listed as “gu-O1-R12 (Api341 analogue)”.

Regarding “native apidaecin sequence that is substituted at position 1 with cysteine: apidaecin 1b (SEQ ID No. 2) substituted at position 1 with cysteine, from the SPOT substitution library (CNNRPVYIPQPRPPHPRL; listed as Apis mellifera)”, the “substitution analysis value (measure of the activity; less than 1 = enhancement relative to native apidaecin)” value in data set [2] was 0.55.

Values taken from patent publication US9556228B2 (Universitaet Leipzig, priority 2011, dated 2017).
